Values quoted from earlier work, collected in US5559147A, “Aromatic fluorine-containing organotin compounds and anti-tumour composition” (Pharmachemie B.V., priority 1994, dated 1996).

Columns and labels:
MCF-7, a mammary tumour = settings: earlier work
WiDR, a colon carcinoma = settings: earlier work
[1] = tested on: two human tumour cell lines, MCF-7 and WiDR; settings: in words

{(2,3,6-F3 C6 H3 CO2 SnBu2)2 O}2
ID50 (MCF-7, a mammary tumour): 0.013 µg/mL | ID50 (WiDR, a colon carcinoma): 0.2 µg/mL

{(2,3,4,5-F4 C6 HCO2 SnBu2)2 O}2
ID50 (MCF-7, a mammary tumour): 0.035 µg/mL | ID50 (WiDR, a colon carcinoma): 0.25 µg/mL

CCC[CH2][Sn]([CH2]CCC)([O]C(=O)c1ccc(F)cc1)[O]C(=O)c1ccc(F)cc1 [(4-F-C6 H4 CO2)2 SnBu2]
ID50 (MCF-7, a mammary tumour): 0.09 µg/mL | ID50 (WiDR, a colon carcinoma): 0.309 µg/mL | ID50 compared with reference drug [1]: comparable to those observed for etoposide

{(2,3-F2 C6 H3 CO2 SnBu2)2 O}2
ID50 (MCF-7, a mammary tumour): 0.009 µg/mL | ID50 (WiDR, a colon carcinoma): 0.12 µg/mL | ID50 compared with reference drug [1]: comparable to mitomycin C

{(4-F-C6 H4 CH2 CO2 SnBu2)2 O}2
ID50 (MCF-7, a mammary tumour): 0.038 µg/mL | ID50 (WiDR, a colon carcinoma): 0.268 µg/mL

{(4-F-C6 H4 CO2 SnBu2)2 O}2
ID50 (MCF-7, a mammary tumour): 0.081 µg/mL | ID50 (WiDR, a colon carcinoma): 0.36 µg/mL | ID50 compared with reference drug [1]: comparable to those observed for etoposide

CCC[CH2][Sn+2][CH2]CCC.O=C([O-])c1c(F)c(F)c(F)c(F)c1C(=O)[O-] [Di-n-butyltintetrafluorophthalate]
ID50 (MCF-7, a mammary tumour): 0.051 µg/mL | ID50 (WiDR, a colon carcinoma): 0.068 µg/mL

{(2-F-C6 H4 CH=CHC2 SnBu2)2 O}2
ID50 (MCF-7, a mammary tumour): 0.028 µg/mL | ID50 (WiDR, a colon carcinoma): 0.368 µg/mL

CCC[CH2][Sn]([CH2]CCC)([O]C(=O)c1cccc(F)c1F)[O]C(=O)c1cccc(F)c1F [(2,3-F2 C6 H3 CO2)2 SnBu2]
ID50 (MCF-7, a mammary tumour): 0.023 µg/mL | ID50 (WiDR, a colon carcinoma): 0.283 µg/mL | ID50 compared with reference drug [1]: comparable to mitomycin C
